# Test results reported in ChEMBL document CHEMBL6114979, “Discovery of 3-indolylbenzoquinone derivatives with therapeutic potential for breast cancer” (Bioorg Med Chem, 2025).
# Active and inactive are the calls of the source. The calls are words filed in the database; no cut-off is given here.
# What was measured:
# [1] = test system: 4T1; test: Antitumor activity against mouse 4T1 cells implanted in Balb/c mouse assessed as damage in endoplasmic reticulum at 80 mg/kg, IT administered once every 4 days for 14 days in presence of olive oil by TEM analysis; assay type: functional, organism-based; details: time 14.0 day
# [2] = Toxicity in female Balb/c mouse implanted with mouse 4T1 cells assessed as mortality at 80 mg/kg, IT administered once every 4 days in presence of olive oil; assay type: organism-based; details: in vivo, other, 96 h
# [3] = Toxicity in female Balb/c mouse implanted with mouse 4T1 cells assessed as abnormalities in kidney at 35 mg/kg, ip administered once every 2 days for 14 days; assay type: organism-based; details: in vivo, 336 h, time 14 day
# [4] = test system: 4T1; test: Antitumor activity against mouse 4T1 cells implanted in Balb/c mouse assessed as appearance of vacuolation at 80 mg/kg, IT administered once every 4 days for 14 days in presence of olive oil by TEM analysis; assay type: functional, organism-based; details: time 14.0 day
# [5] = test system: MDA-MB-231; test: Induction of apoptosis in human MDA-MB-231 cells assessed as viable cells at 1 uM incubated for 24 hrs by Annexin-V/PI staining based flow cytometric analysis (reference value: 93.37%); assay type: functional; details: read-out: Activity
# [6] = Toxicity in female Balb/c mouse implanted with mouse 4T1 cells assessed as abnormal behaviour at 80 mg/kg, IT administered once every 4 days in presence of olive oil; assay type: organism-based; details: in vivo, other, 96 h
# [7] = test system: 4T1; test: Antitumor activity against mouse 4T1 cells implanted in Balb/c mouse assessed as reduction in tumor volume at 25 to 35 mg/kg, ip administered once every 2 days for 14 days; assay type: functional, organism-based; details: dose 25-35 mg/kg, time 14.0 day
# [8] = Toxicity in Kunming mouse assessed as change in liver lesions at 240 to 469 mg/kg, ip administered for 14 days by H and E staining based analysis; assay type: organism-based; details: in vivo, 336 h, dose 240-469 mg/kg, time 14 day
# [9] = Cardiotoxicity in Kunming mouse assessed as change in CK level administered intraperitoneally for 14 days (reference value: 851.75 +/- 87.81 U); assay type: toxicity; details: in vivo, ip, 336 h, time 14 day
# [10] = Hepatotoxicity in Kunming mouse assessed as change in ALT level administered intraperitoneally for 14 days (reference value: 45.75 +/- 4.65 U); assay type: toxicity; details: in vivo, ip, 336 h, time 14 day
# [11] = test system: 4T1; test: Antitumor activity against mouse 4T1 cells implanted in Balb/c mouse assessed as reduction in tumor volume at 80 mg/kg, IT administered once every 4 days in presence of olive oil; assay type: functional, organism-based
# [12] = test system: 4T1; test: Antitumor activity against mouse 4T1 cells implanted in Balb/c mouse assessed as appearance of mitochondrial swelling at 80 mg/kg, IT administered once every 4 days for 14 days in presence of olive oil by TEM analysis; assay type: functional, organism-based; details: time 14.0 day
# [13] = test system: MDA-MB-231; test: Induction of apoptosis in human MDA-MB-231 cells assessed as increase in red fluorescence at 1 uM incubated for 24 hrs in presence of doxorubicin by fluorescence microscopic analysis; assay type: functional, cell-based
# [14] = test system: 4T1; test: Antitumor activity against mouse 4T1 cells implanted in Balb/c mouse assessed as appearance of mitochondrial swelling at 200 mg/kg, TOP administration once every 2 days for 14 days; assay type: functional, organism-based; details: time 14.0 day
# [15] = test system: 4T1; test: Antitumor activity against mouse 4T1 cells implanted in Balb/c mouse assessed as lighter tumor at 200 mg/kg, TOP administration once every 2 days for 14 days; assay type: functional, organism-based; details: time 14.0 day
# [16] = Toxicity in female Balb/c mouse implanted with mouse 4T1 cells assessed as tumor metastasis to lungs at 25 mg/kg, ip administered once every 2 days for 14 days; assay type: organism-based; details: in vivo, 336 h, time 14 day
# [17] = test system: 4T1; test: Antitumor activity against mouse 4T1 cells implanted in Balb/c mouse assessed as tumor inhibition rate at 200 mg/kg, TOP administration once every 2 days for 14 days relative to control; assay type: functional; set-up: scale not given: the % may be the effect or the level left; details: time 14 day
# [18] = test system: 4T1; test: Antitumor activity against mouse 4T1 cells implanted in Balb/c mouse assessed as appearance of mitochondrial swelling at 25 to 35 mg/kg, ip administered once every 2 days for 14 days by TEM analysis; assay type: functional, organism-based; details: dose 25-35 mg/kg, time 14.0 day
# [19] = test system: MDA-MB-231; test: Induction of cell cycle arrest in human MDA-MB-231 cells assessed as accumulation of cells at S phase at 1 uM incubated for 24 hrs by PI staining based flow cytometric analysis (reference value: 8.71%); assay type: functional
# [20] = test system: 4T1; test: Antitumor activity against mouse 4T1 cells implanted in Balb/c mouse assessed as appearance of extensive tumor cell necrosis at 25 mg/kg, ip administered once every 2 days for 14 days; assay type: functional, organism-based; details: time 14.0 day
# [21] = test system: 4T1; test: Antitumor activity against mouse 4T1 cells implanted in Balb/c mouse assessed as damage in endoplasmic reticulum at 25 to 35 mg/kg, ip administered once every 2 days for 14 days by TEM analysis; assay type: functional, organism-based; details: dose 25-35 mg/kg, time 14.0 day
# [22] = test system: 4T1; test: Antitumor activity against mouse 4T1 cells implanted in Balb/c mouse assessed as appearance of vacuolation at 200 mg/kg, TOP administration once every 2 days for 14 days; assay type: functional, organism-based; details: time 14.0 day
# [23] = test system: 4T1; test: Antitumor activity against mouse 4T1 cells implanted in Balb/c mouse assessed as appearance of central tumor necrosis at 35 mg/kg, ip administered once every 2 days for 14 days relative to control; assay type: functional; details: time 14 day
# [24] = test system: A549; test: Antiproliferative activity against human A549 cells assessed as inhibition of cell proliferation incubated for 48 hrs by CCK-8 assay; assay type: functional, cell-based; details: A549, 48 h
# [25] = test system: MDA-MB-231; test: Induction of apoptosis in human MDA-MB-231 cells assessed as early apoptotic cells at 1 uM incubated for 24 hrs by Annexin-V/PI staining based flow cytometric analysis (reference value: 2.69%); assay type: functional
# [26] = Toxicity in Kunming mouse assessed as change in lung morphology at 240 to 469 mg/kg, ip administered for 14 days by H and E staining based analysis; assay type: organism-based; details: in vivo, 336 h, dose 240-469 mg/kg, time 14 day
# [27] = test system: 4T1; test: Antitumor activity against mouse 4T1 cells implanted in Balb/c mouse assessed as tumor suppression rate at 35 mg/kg, ip administered once every 2 days for 14 days relative to control; assay type: functional
# [28] = test system: 4T1; test: Antitumor activity against mouse 4T1 cells implanted in Balb/c mouse assessed as reduction in tumor size at 25 to 35 mg/kg, ip administered once every 2 days 14 days; assay type: functional, organism-based; details: dose 25-35 mg/kg, time 14.0 day
# [29] = Toxicity in Kunming mouse assessed as lethal dose administered intraperitoneally for 14 days; details: in vivo, route ip, time 14 day
# [30] = Toxicity in female Balb/c mouse implanted with mouse 4T1 cells assessed as abnormalities in heart at 35 mg/kg, ip administered once every 2 days for 14 days; assay type: organism-based; details: in vivo, 336 h, time 14 day
# [31] = Toxicity in female Balb/c mouse implanted with mouse 4T1 cells assessed as mortality at 25 to 35 mg/kg, ip administered once every 2 days; assay type: organism-based; details: in vivo, 48 h, dose 25-35 mg/kg, time 2 day
# [32] = test system: 4T1; test: Antitumor activity against mouse 4T1 cells implanted in Balb/c mouse assessed as appearance of chromatin aggregation at 25 to 35 mg/kg, ip administered once every 2 days for 14 days by TEM analysis; assay type: functional, organism-based; details: dose 25-35 mg/kg, time 14.0 day
# [33] = Solubility of compound in 0.1 M HCL; assay type: physicochemical
# [34] = Toxicity in Kunming mouse assessed as infiltration of chronic inflammatory cells at 240 to 469 mg/kg, ip administered for 14 days by H and E staining based analysis; assay type: organism-based; details: in vivo, 336 h, dose 240-469 mg/kg, time 14 day
# [35] = test system: HUVEC; test: Cytotoxicity against human HUVEC cells; assay type: toxicity, cell-based
# [36] = Toxicity in Kunming mouse assessed as change in spleen lesions at 240 to 469 mg/kg, ip administered for 14 days by H and E staining based analysis; assay type: organism-based; details: in vivo, 336 h, dose 240-469 mg/kg, time 14 day
compound,measurement,setting,value
Cc1[nH]c2ccccc2c1C1=C(F)C(=O)C(F)=C(N2CCOCC2)C1=O,Activity,[1],Active
same,Activity,[2],Non-toxic
same,Activity,[3],Non-toxic
same,Activity,[4],Active
same,viability at 1 µM,[5],45.1%
same,Activity,[6],Non-toxic
same,Activity,[7],Active
same,Activity,[8],Non-toxic
same,Activity,[9],812 U/L
same,Activity,[10],28.8 U/L
same,Activity,[11],Active
same,Activity,[12],Active
same,Activity,[13],Active; Compound Showed More Effect Than Mitoxantrone Treated Group
same,Activity,[14],Active
same,Activity,[15],Active
same,Activity,[16],Toxic
same,Activity,[17],38.9%
same,Activity,[18],Active
same,Activity,[19],4.21%
same,Activity,[20],Active
same,Activity,[21],Active
same,Activity,[22],Active
same,Activity,[23],100%
same,IC50,[24],5.21 µM
same,Activity,[25],24.53%
same,Activity,[26],Non-toxic
same,Activity,[27],50%
same,Activity,[28],Active
same,LD50 at 336 h,[29],385 mg/kg
same,Activity,[30],Non-toxic
same,Activity,[31],Non-toxic
same,Activity,[32],Active
same,solubility,[33],19 µg/mL
same,Activity,[34],Toxic
same,Activity,[35],Toxic
same,Activity,[36],Non-toxic
